Experimental data published in paper PMC3578829, “A Small Molecule (Pluripotin) as a Tool for Studying Cancer Stem Cell Biology: Proof of Concept” (PLoS ONE, 2013).

Columns and labels:
COLO 205 [1] = assay: Cell growth after five day exposure; type: cell-based; conditions: 0.1 µM added day 1, harvested 5 days later
Method: (§1) Five day exposures were conducted.

HT29 [2] = assay: Cell growth after five day exposure; type: cell-based; conditions: 0.1 µM added day 1, harvested 5 days later
Method: as §1

HCC-2998 = assay: Cell growth after five day exposure; type: cell-based; conditions: 0.1 µM added day 1, harvested 5 days later
Method: as §1

HCT-116 [3] = assay: Cell growth after five day exposure; type: cell-based; conditions: 0.1 µM added day 1, harvested 5 days later
Method: as §1

SW-620 [4] = assay: Cell growth after five day exposure; type: cell-based; conditions: 0.1 µM added day 1, harvested 5 days later
Method: as §1

HCT-15 = assay: Cell growth after five day exposure; type: cell-based; conditions: 0.1 µM added day 1, harvested 5 days later
Method: as §1

KM12 = assay: Cell growth after five day exposure; type: cell-based; conditions: 0.1 µM added day 1, harvested 5 days later
Method: as §1

COLO 205 [5] = assay: Sphere formation assay (5% FBS); type: cell-based; parameters: key: Y indicates the presence of spheres following SC-1 treatment
Method: (§2) The 7 colon tumor lines were seeded in […] tissue culture treated dishes (Falcon) at low density (62,500 cells/ml) in complete media containing 5% FBS one day prior to addition of 0.1 µM SC-1 (final cell concentration 31,250 cells/ml). Photomicrographs were prepared on day 1 and day 5 following compound treatment utilizing a Zeiss XM inverted microscope and CCD cooled-camera imaging system. Nonadherent spheres were defined as floating, circular structures with well defined borders. Occasionally, exceptionally large spheres re-adhered to the tissue culture surface. Aggregates of floating cells or grape-like clusters were not considered spheres.

HT29 [6] = assay: Sphere formation assay (5% FBS); type: cell-based; parameters: key: Y indicates the presence of spheres following SC-1 treatment
Method: as §2

HCT-116 [7] = assay: Sphere formation assay (5% FBS); type: cell-based; parameters: key: Y indicates the presence of spheres following SC-1 treatment
Method: as §2

RSK2 = RSK2 (Homo sapiens, UniProt P51812); assay: In vitro kinase inhibition assay (modified Nguyen et al.); type: biochemical; conditions: RSK2 N-terminal domain; mean±SD, n = 5; concentration inhibiting 50% of control activity
Method: The RSK2 in vitro kinase inhibition assay utilized was a modification of protocols established by Nguyen et al.. Additional protocols that confirmed the results depicted in Figure 4 and evaluated kinase inhibitory activity in a random selection of protein kinases (Table 3) were conducted at Reaction Biology Corporation (Malvern, PA). This was a miniaturized ^33P-based screening assay.

HT29 [8] = assay: FACS analysis of putative CSC surface markers; type: cell-based; parameters: key to Change in Surface Marker Expression: Y indicates increased putative surface marker expression using the panel of 6 antibodies described in the Material and Methods
Description: (§3) A BD FACsAria (BD Biosciences, San Jose, CA) was utilized for FACS analysis according to standard procedures. The instrument was equipped with a 488 nm 100 mW blue laser, a 638 nm 30 mW red laser, and a 405 nm 50 mW violet laser. The software package Diva 5.0 (BD Biosciences) was used for collection and analysis of data. The alignment of the three lasers in the flow cell was verified prior to running tumor cell samples by running Rainbow Beads (Spherotech). The six colors being used in the analysis were then compensated to account for spectral overlap emitted by the fluorochromes within each laser as well as across the lasers using a semi-automated process. This was done using compensation beads (BD Biosciences) that were coated with anti-mouse antibodies. The beads were incubated with each individual antibody used in the six-color panel for 15 min at room temperature. An unstained tube was also prepared. The unstained beads along with beads stained for each fluorochrome were run individually, recording 5000 events. The data was then run through the Diva software compensation matrices and the amount of “spectral bleed” from other fluorochromes into the fluorochrome of interest’s channel was determined and automatically compensated.
(§4) Treated and untreated cells (1×10^6 cells/condition) were harvested with trypsin EDTA (Invitrogen), washed, and then labeled with a six antibody cocktail (antibodies against the following epitopes: CD44, CD24, CD133, CD326, CD166, and P-glycoprotein in PBS without calcium and magnesium supplemented with 2% FBS) or appropriate isotype control antibodies. An unstained control was also prepared. The specific amounts needed for each labeled antibody were determined through titration studies. All cells were incubated with antibody for 15 minutes on ice and in the dark. The cells were then washed, resuspended in buffer, and analyzed on the FACsAria. For each experimental condition, the isotype control tube was evaluated first and 10,000 events were collected. Forward vs. side scatter gates were then established to eliminate likely debris. Further gating was determined for each conjugated isotype control antibody such that 1% of the population was considered a positive staining event. Cells stained with specific labeled antibodies were then evaluated and 10,000 events collected.

HCT-116 [9] = assay: FACS analysis of putative CSC surface markers; type: cell-based; parameters: key to Change in Surface Marker Expression: Y indicates increased putative surface marker expression using the panel of 6 antibodies described in the Material and Methods
Description: as §3, §4

SW-620 [10] = assay: FACS analysis of putative CSC surface markers; type: cell-based; parameters: key to Change in Surface Marker Expression: Y indicates increased putative surface marker expression using the panel of 6 antibodies described in the Material and Methods
Description: as §3, §4

colon cell lines = assay: NCI Anticancer Screen growth inhibition; type: cell-based; conditions: 2 day exposure; mean±s.e.m., n = 7 colon cell lines
Description: (n = 6, paired Student’s t test, p = 0.02, Table S1). […] Finally, in a representative SC-1 sensitive tumor line (HCT-116), there was no difference in the distribution of the SC-1 treated cell population across the cell cycle compared to control treated cells (Figure S4).

[11] = five days of SC-1 treatment, mean±s.e.m., n = 3

Chain of RSK2 (P51812 whole entry, species assumed, the tested form may be a part): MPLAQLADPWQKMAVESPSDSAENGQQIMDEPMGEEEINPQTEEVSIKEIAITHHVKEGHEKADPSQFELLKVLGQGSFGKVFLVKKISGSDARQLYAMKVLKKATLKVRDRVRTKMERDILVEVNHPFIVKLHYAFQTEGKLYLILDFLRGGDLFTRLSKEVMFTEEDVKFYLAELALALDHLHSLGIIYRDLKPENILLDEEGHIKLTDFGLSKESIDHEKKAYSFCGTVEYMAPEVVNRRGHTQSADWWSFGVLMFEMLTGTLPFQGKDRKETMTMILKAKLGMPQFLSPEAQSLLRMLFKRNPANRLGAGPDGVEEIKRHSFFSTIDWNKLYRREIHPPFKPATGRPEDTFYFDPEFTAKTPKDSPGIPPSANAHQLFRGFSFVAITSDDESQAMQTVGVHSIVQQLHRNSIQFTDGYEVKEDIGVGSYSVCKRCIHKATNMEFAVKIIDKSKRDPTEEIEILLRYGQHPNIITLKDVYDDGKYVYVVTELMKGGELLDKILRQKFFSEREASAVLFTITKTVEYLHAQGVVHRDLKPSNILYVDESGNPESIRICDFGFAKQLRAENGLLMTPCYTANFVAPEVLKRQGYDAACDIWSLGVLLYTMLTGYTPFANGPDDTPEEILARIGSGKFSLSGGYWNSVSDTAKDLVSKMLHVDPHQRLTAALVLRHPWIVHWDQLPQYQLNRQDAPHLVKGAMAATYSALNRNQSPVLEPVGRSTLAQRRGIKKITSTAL

EC50 (RSK2): 2500 ± 1800 nM
SMILES: Cc1cc(Nc2ncc3c(n2)N(C)C(=O)N(c2cc(NC(=O)c4cccc(C(F)(F)F)c4)ccc2C)C3)n(C)n1 [SC-1]
Fold Change from Initial Inocula (COLO 205 [1]): 2
Fold Change from Initial Inocula (HT29 [2]): 17.5
Fold Change from Initial Inocula (HCC-2998): 4
Fold Change from Initial Inocula (HCT-116 [3]): 31
Fold Change from Initial Inocula (SW-620 [4]): 27.5
Fold Change from Initial Inocula (HCT-15): 19.8
Fold Change from Initial Inocula (KM12): 20.6
Sphere formation (COLO 205 [5]; 0.1 µM SC-1, 5% FBS): sphere formation occurred in a fraction
Sphere formation (COLO 205 [5]; summary of SC-1 effects): Y
Sphere formation (HT29 [6]; 0.1 µM SC-1, 5% FBS, 24 hrs): uniform nonadherent spheres with well-defined borders formed
Sphere formation (HT29 [6]; summary of SC-1 effects): Y
Sphere formation (HCT-116 [7]; 0.1 µM SC-1, 5% FBS, 24 hrs): uniform nonadherent spheres with well-defined borders formed
Sphere formation (HCT-116 [7]; summary of SC-1 effects): Y
Cells expressing the CD133 glycosylated epitope (HT29 [8]; [11]): 27.6±3.6 % positive
Change in Surface Marker Expression (HT29 [8]; marker CD133+, summary of SC-1 effects): Y (CD133+)
CD44+ CD24- subpopulation (HCT-116 [9]; after SC-1 treatment): increased
Change in Surface Marker Expression (HCT-116 [9]; marker CD44+ CD24−, summary of SC-1 effects): Y (CD44+ CD24−)
CD44 subpopulation (SW-620 [10]; [11]): 74.1±13.4 % positive
Change in Surface Marker Expression (SW-620 [10]; marker CD44+, summary of SC-1 effects): Y (CD44+)
GI50 (colon cell lines): 91 ± 70 nM
